# Data as given in article PMC5423648, “Acetyl group coordinated progression through the catalytic cycle of an arylalkylamine N-acetyltransferase” (PLoS ONE, 2017).
# Target: T1, DAT (Drosophila melanogaster, UniProt Q94521)
# T1 construct: gene speck; construct, tags and host of the DAT used for ITC not described
# Test: ITC
# Type: binding
# T1 sequence (Q94521 36-275): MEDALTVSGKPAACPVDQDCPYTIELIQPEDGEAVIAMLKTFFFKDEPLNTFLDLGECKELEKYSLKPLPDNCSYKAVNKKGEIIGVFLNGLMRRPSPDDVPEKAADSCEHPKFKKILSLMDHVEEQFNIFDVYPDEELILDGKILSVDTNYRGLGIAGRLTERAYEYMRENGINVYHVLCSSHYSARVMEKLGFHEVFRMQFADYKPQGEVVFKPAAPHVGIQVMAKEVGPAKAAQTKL
smiles,measurement,value
CC(=O)SCCNC(=O)CCNC(=O)[C@H](O)C(C)(C)COP(=O)(O)OP(=O)(O)OC[C@H]1O[C@@H](n2cnc3c(N)ncnc32)[C@H](O)[C@@H]1OP(=O)(O)O [acetyl-CoA],Kd,3.7 ± 0.1 µM
